Where two headings read alike, the source gives them in different places.
Columns and labels:
hFPPS [1] = molecular target: T1, hFPPS (Homo sapiens (Human), UniProt P14324); experiment: biochemical
recombinant human GGPPS = recombinant human GGPPS (Homo sapiens (Human), UniProt O95749); experiment: In vitro hGGPPS inhibition assay; assay type: biochemical; details: for IC50: wild-type hGGPPS enzyme, average of n ≥ 3 determinations; for selectivity improved for inhibiting hGGPPS vs hFPPS: starting from the original hits, e.g. C-5
hFPPS [2] = molecular target: T1, hFPPS; details: read-out: hFPPS IC50
RPMI-8226 = experiment: MM cell viability assay (MTS proliferation); assay type: cell-based; details: Homo sapiens, 72 hours, average of n ≥ 8 determinations, read-out: MM cells EC50, RPMI-8226
JJN3 = experiment: MM cell viability assay (MTS proliferation); assay type: cell-based; details: Homo sapiens, JJN-3; 72 hours, average of n ≥ 8 determinations; read-out: MM cells EC50, JJN3
Experimental: (§1) Various MM cancer cell lines (Table 3 and FIGS. 5 and 6) were cultured in RPMI-1640 medium supplemented with 10% fetal bovine serum (Gibco BRL, Gaithersburg, Md.) supplemented with 2 mM L-glutamine in a 5% CO2 atmosphere at 37° C. EC50 values for each target compound were determined using a commercial MTS proliferation assay (Promega, Madison, Wis.) following the manufacturer's instructions. Briefly, compounds were diluted directly into culture medium and then applied to cells that were seeded in 96-well plates at a density 5,000 cells per well. Cells were incubated with the indicated final concentration of compound in a total media volume of 100 μl/well for 72 hours prior to the addition of the MTS reagent. Plates were incubated at 37° C. in the presence 5% CO2 for 2 hours prior to recording OD490 using a Tecan Infinite M200Pro microplate reader. Results were analyzed to obtain dose-response curves and EC50 calculations using GraphPad PRISM version 5 for the MacIntosh (GraphPad Software, San Diego, Calif.).

[3] = tested on: phosphorylated Tau protein (P-Tau); experiment: Phosphorylation of the tau protein in immortalized human neurons; assay type: cell-based; details: immortalized human neurons (SH-SYSY)
SH-SYSY neurons = experiment: LDH toxicity assay in immortalized human neurons; assay type: cell-based
KMS28PE = experiment: MM cell viability assay (MTS proliferation); assay type: cell-based; details: Homo sapiens, KMS-28PE; 72 hours, average of n ≥ 8 determinations; read-out: MM cells EC50, KMS28PE
Experimental: as §1

[4] = tested on: acute monocytic leukemia (MOLM-13) cells; experiment: Cancer cell viability; assay type: cell-based, human; details: compared to zolendronate (ZOL), FIG. 4
Experimental: (§2) NCI-ADR-RES cells were obtained from National Cancer Institute (NCI) and all other cell lines were obtained from the American Type Culture Collection (ATCC). NHBE cells were maintained in Bronchial Epithelial Cell Growth Medium (BEGM) supplemented with 10% FBS (Multicell) and 2 mM L-glutamine (Gibco/Life Technologies). All other cells were maintained in culture using Roswell Park Memorial Institute (RPMI) 1640 media supplemented with 10% FBS (Multicell), Penicillin (100 U/mL), Streptomycin (100 ug/mL) and 2 mM L-glutamine (Gibco/Life Technologies). Cells were plated in logarithmic growth phase in each well of clear bottom multiwell plates and cultured 16-24 h before drug treatment. […]
(§3) Cell viability was determined by cellular quantitation of adenosine triphosphate (ATP) using the CellTiter-Glo Luminescent Cell Viability Assay Kit (Promega Corporation, Cat. No. G7571). Briefly, the CellTiter-Glo «one-mix-measure» reagent, containing both the cell permeabilizing agent and the Ultra-Glo luciferase, was added to the cell culture according to manufacturers' instructions allowing the free ATP to be released from viable cells and subsequently converted into luminescence. The luminescence generated in the reaction is directly proportional to cell viability and was quantified in a luminometer (PHERAstar FS, BMG Labtech) […]

[5] = tested on: chronic myelogenous leukemia (K562) cells; experiment: Cancer cell viability; assay type: cell-based, human; details: compared to zolendronate (ZOL), FIG. 4
Experimental: as §2, §3

[6] = tested on: multiple myeloma cell line RPMI-8226; experiment: Apoptosis assay in multiple myeloma cells (flow cytometry); assay type: cell-based, human; details: 100 nM, 500 nM, and 1 μM, 72 h, FIG. 6
Experimental: To determine the ability of compounds of the application to induce MM cell lines to undergo apoptosis, cells were seeded at a density of 7.5×10^5/mL in medium supplemented with 10% FBS with increasing concentrations of compound (i.e. compound that inhibits hGGPPS) or vehicle alone. Following a 72 h incubation, apoptosis was determined by double staining with APC Annexin V (BD Biosciences, Mississauga ON) and eFluor 780 Viability dye (ThermoFisher Scientific) according to the manufacturer's directions. Stained samples were acquired on a BD FACSCanto II instrument (BD Biosciences, Mississauga ON) and post-acquisition analyses were performed using FlowJo (V10) software. Apoptosis of multiple myeloma cells was also determined by flow cytometry by double staining cells with Allophycocyanin (APC) conjugated Annexin V and a V450 conjugated Mouse Anti-Human CD138 monoclonal antibody, following the manufacturer's instructions (BD Biosciences, Mississauga ON).

[7] = Lipophilicity by C-18 reversed phase HPLC relative retention; details: versus zolodronic acid
[8] = tested on: normal human bronchial cells (NHBE); experiment: Cell viability (CellTiter-Glo), normal cells; assay type: cell-based; details: compared to doxorubicin, FIG. 3a
Experimental: as §2, §3

in vitro [9] = details: Sprague-Dawley, rat, microsomes
in vitro [10] = details: human, microsomes
in vitro [11] = details: male, CD-1, mouse, microsomes

recombinant human GGPPS, sequence (O95749 whole entry): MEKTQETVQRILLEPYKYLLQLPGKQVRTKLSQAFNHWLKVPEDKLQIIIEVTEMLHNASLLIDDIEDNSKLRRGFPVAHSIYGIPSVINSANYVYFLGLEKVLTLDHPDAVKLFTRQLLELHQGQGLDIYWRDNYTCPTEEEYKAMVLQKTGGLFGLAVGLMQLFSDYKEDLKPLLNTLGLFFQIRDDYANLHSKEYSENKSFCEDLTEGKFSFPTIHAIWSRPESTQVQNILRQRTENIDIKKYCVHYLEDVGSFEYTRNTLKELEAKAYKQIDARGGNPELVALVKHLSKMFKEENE
T1 sequence (P14324 whole entry): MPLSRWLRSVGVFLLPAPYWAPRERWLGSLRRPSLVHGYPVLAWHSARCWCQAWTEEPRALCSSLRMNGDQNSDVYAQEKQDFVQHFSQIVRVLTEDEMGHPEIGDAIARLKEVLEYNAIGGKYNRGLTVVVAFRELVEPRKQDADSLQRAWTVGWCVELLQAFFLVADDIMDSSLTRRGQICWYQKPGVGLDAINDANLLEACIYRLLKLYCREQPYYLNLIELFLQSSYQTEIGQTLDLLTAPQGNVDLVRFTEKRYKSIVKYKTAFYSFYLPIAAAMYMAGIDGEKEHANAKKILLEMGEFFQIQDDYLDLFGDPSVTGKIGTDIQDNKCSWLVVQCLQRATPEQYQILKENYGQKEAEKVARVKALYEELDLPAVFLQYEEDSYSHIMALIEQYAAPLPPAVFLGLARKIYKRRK

Compound	Ratio of hFPPS IC50 vs hGGPPS IC50 (recombinant human GGPPS)	IC50 (recombinant human GGPPS)	IC50 (hFPPS [2])	EC50 (RPMI-8226)	EC50 (JJN3)	EC50 (KMS28PE)	other results
O=P(O)(O)C(Nc1nc(-c2ccccc2)nc2sccc12)P(=O)(O)O [Compound C-5, reference compound]	~7	0.082 µM					IC50 (hFPPS [1]): 0.54 µM
O=P(O)(O)C(Nc1ncnc2sc(-c3ccccc3)cc12)P(=O)(O)O [Compound C-10, reference compound]			0.2 µM				
O=P(O)(O)C(Nc1ncnc2sc(-c3ccc(C(F)(F)F)cc3)cc12)P(=O)(O)O [Compound C-12, reference compound]	>4 × 10^−5	~10000 µM	0.023 µM	> 50 µM	> 10 µM		
O=P(O)(O)C(Nc1ncnc2sc(-c3ccc(OC4CC4)cc3)cc12)P(=O)(O)O [Compound C-13, reference compound]	>7 × 10^−5	~10000 µM	0.014 µM	> 50 µM	> 10 µM		
COc1ccc(C(=O)Nc2cccc(-c3nc(NC(P(=O)(O)O)P(=O)(O)O)c4ccsc4n3)c2)cc1 [Compound I-5, (((2-(3-(4-methoxybenzamido)phenyl)thieno[2,3-d]pyrimidin-4-yl)amino)methylene)bis(phosphonic acid)]	12	0.085 µM	1 µM	0.38 µM	1.3 µM	1.4 µM	Reduction in P-Tau/Total-tau protein [3]: 43%; LDH Toxicity Assay (relative toxicity compared to the control samples) (SH-SYSY neurons): None observed
O=C(Nc1ccccc1)c1cccc(-c2nc(NC(P(=O)(O)O)P(=O)(O)O)c3ccsc3n2)c1 [Compound I-6, (((2-(3-(phenylcarbamoyl)phenyl)thieno[2,3-d]pyrimidin-4-yl)amino)methylene)bis(phosphonic acid)]	57	0.053 µM	3 µM	0.11 µM	0.34 µM	0.7 µM	blocking viability of cancer cells [4]: more effective; blocking viability of cancer cells [5]: more effective; selectivity improved for inhibiting hGGPPS vs hFPPS (recombinant human GGPPS): ~55 fold
O=C(Nc1cccc(-c2nc(NC(P(=O)(O)O)P(=O)(O)O)c3ccsc3n2)c1)c1ccccc1 [Compound I-13]	31	0.064 µM	2 µM	0.1 µM	0.5 µM	0.55 µM	selectivity improved for inhibiting hGGPPS vs hFPPS (recombinant human GGPPS): approximately 30 fold
Cc1ccc(C(=O)Nc2cccc(-c3nc(NC(P(=O)(O)O)P(=O)(O)O)c4ccsc4n3)c2)cc1 [Compound I-18, (((2-(3-(4-methylbenzamido)phenyl)thieno[2,3-d]pyrimidin-4-yl)amino)methylene)bis(phosphonic acid)]				0.12 µM	0.6 µM	0.62 µM	IC50 (hFPPS [1]): 2.4 µM
COC(C(=O)Nc1cccc(-c2nc(NC(P(=O)(O)O)P(=O)(O)O)c3ccsc3n2)c1)c1ccccc1 (stereo not drawn) [Compound I-24]							apoptosis [6]: induce apoptosis
COc1ccc(NC(=O)c2cccc(-c3nc(NC(P(=O)(O)O)P(=O)(O)O)c4ccsc4n3)c2)cc1F [Compound I-37, (((2-(3-((3-fluoro-4-methoxyphenyl)carbamoyl)phenyl)thieno[2,3-d]pyrimidin-4-yl)amino)methylene)bis(phosphonic acid)]				0.15 µM	0.51 µM	0.17 µM	difference in relative retention time on C-18 reversed phase HPLC column (lipophilicity) [7]: more than 7 min; toxicity to normal human bronchial cells [8]: less toxic; half-life (in vitro [9]): 3.12 h; half-life (in vitro [10]): 2.57 h; half-life (in vitro [11]): 2.13 h
COc1ccc(NC(=O)c2cccc(-c3nc(NC(P(=O)(O)O)P(=O)(O)O)c4sccc4n3)c2)cc1F [Compound I-42, (((2-(3-((3-fluoro-4-methoxyphenyl)carbamoyl)phenyl)thieno[3,2-d]pyrimidin-4-yl)amino)methylene)bis(phosphonic acid)]		0.085 µM		0.2 µM			
COc1ccc(NC(=O)c2cccc(-c3nc(NC(P(=O)(O)O)P(=O)(O)O)c4ncsc4n3)c2)cc1F [Compound I-43]		0.065 µM		0.14 µM			
O=P(O)(O)C(O)(Cc1cccnc1)P(=O)(O)O [RIS, Risedronic acid, reference compound]					10 µM	10.6 µM	
O=P(O)(O)C(O)(Cn1ccnc1)P(=O)(O)O [ZOL, zoledronic acid, reference compound]					5 µM	6.4 µM	Reduction in P-Tau/Total-tau protein [3]: 50%
